Experimental data reported in PubChem BioAssay (NCI).
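Each compound was tested at five concentrations against cells in 96-well plates for 48 hours. GI50 = concentration required for 50% inhibition of growth. TGI marks complete inhibition of growth.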

How the values were obtained:
Assay in all cases: NCI anticancer screen, dose series, 48 h
SK-MEL-2 melanoma = test system: SK-MEL-2 melanoma
RXF 393 renal = test system: RXF 393 renal
OVCAR-3 ovarian = test system: OVCAR-3 ovarian
OVCAR-4 ovarian = test system: OVCAR-4 ovarian
OVCAR-8 ovarian = test system: OVCAR-8 ovarian
SW-620 colon = test system: SW-620 colon
SN12C renal = test system: SN12C renal
LOX IMVI melanoma = test system: LOX IMVI melanoma
MALME-3M melanoma = test system: MALME-3M melanoma
MCF7 breast = test system: MCF7 breast

Structure (SMILES)	GI50 (SK-MEL-2 melanoma) [µM]	TGI (SK-MEL-2 melanoma) [µM]	GI50 (RXF 393 renal) [µM]	TGI (RXF 393 renal) [µM]	GI50 (OVCAR-3 ovarian) [µM]	TGI (OVCAR-3 ovarian) [µM]	GI50 (OVCAR-4 ovarian) [µM]	TGI (OVCAR-4 ovarian) [µM]	GI50 (OVCAR-8 ovarian) [µM]	TGI (OVCAR-8 ovarian) [µM]	GI50 (SW-620 colon) [µM]	TGI (SW-620 colon) [µM]	GI50 (SN12C renal) [µM]	TGI (SN12C renal) [µM]	GI50 (LOX IMVI melanoma) [µM]	TGI (LOX IMVI melanoma) [µM]	GI50 (MALME-3M melanoma) [µM]	TGI (MALME-3M melanoma) [µM]	TGI (MCF7 breast) [µM]	GI50 (MCF7 breast) [µM]
CCC[CH2][Sn]([CH2]CCC)([O]C(=O)c1cc(OC)c(OC)c(OC)c1)[O]C(=O)c1cc(OC)c(OC)c(OC)c1	1.1	2.31	0.297	1.12	1.26	2.59	1.48	2.9	1.5	3.37	0.973	2.72	1.51	3.68	0.695	2.77	0.946	2.17	–	–
O=[n+]1cnn([O-])c2ccccc21	–	96.2	–	59.6	–	–	–	–	–	> 100	–	46.1	–	> 100	–	> 100	–	47.6	44.4	–
CCCCCCCCC(=O)CCCCCCCCC(=O)O	–	> 100	–	67.1	–	40.1	–	> 100	–	32.4	–	> 100	–	76.2	–	30.2	–	> 100	–	–
CC(=O)c1cc2c3c(c1)c1cc4c(cc1c(=O)n3CC2)OCO4	–	> 100	–	> 100	–	> 100	–	> 100	–	> 100	–	> 100	–	> 100	–	> 100	–	> 100	–	–
O=C(/C=C/c1ccccc1O)c1ccccc1	–	–	10.3	23.4	3.14	12.3	–	–	4.39	17.7	1.8	3.72	12.9	28.7	2.09	5.11	5.5	20.4	5.69	1.34
C[CH2][Sn]1([CH2]C)[O]C2C(O)OC(CO)C(O)C2[O]1 (centres undefined)	35.5	> 100	27.6	> 100	> 100	> 100	14.8	36.9	> 100	> 100	20.2	46.4	4.55	26.5	–	–	14	30.2	79.5	25.4
Clc1ccc(N/N=C/c2ccccn2)nc1	0.675	> 100	0.492	15.7	0.295	> 100	0.321	> 100	0.425	> 100	0.468	> 100	0.469	> 100	0.326	18.6	–	–	> 100	0.338
Cc1c(NC(=O)CCCl)c(=O)oc2c(C)c3occc(=O)c3cc12	–	–	–	> 100	–	–	–	> 100	–	> 100	–	> 100	–	–	–	–	–	> 100	> 100	–
O=C(Nc1cccc(-n2cc(-c3ccncc3)c(-c3cc(O)cc(Cl)c3)n2)c1)Nc1ccc(Cl)c(Cl)c1	1.8	4.04	0.555	2.46	1.96	5.05	–	–	2.02	5.06	3.22	9.97	2.78	18.1	–	–	1.8	5.48	9.75	2.8
C=C1C(=O)O[C@H]2[C@H]1CC/C(COC(=O)NCc1c[nH]c3ccc(OC)cc13)=C\CC[C@@]1(C)O[C@@H]21	6.27	21.2	1.18	2.52	0.695	2.1	2.14	11.8	1.61	5.53	0.45	1.92	1.42	5.21	1.19	2.52	2.14	4.24	–	–
COC(=O)C(=C\Sc1ccccc1)/C=C/C(=O)OC(C)(C)C	–	24.8	–	7.7	–	17	–	28.6	–	31.2	–	12.4	–	> 29	–	21.7	–	30.7	–	–
O=S1Cc2ccccc2CS1 (centres undefined)	–	–	–	29.5	–	29	–	30.6	–	28.7	–	27.1	–	28.3	–	21.3	–	26.4	–	–
Cc1cc(NC(=O)NC(=O)c2ccccc2[N+](=O)[O-])ccc1Oc1ncc(Cl)cn1	–	–	–	0.147	–	1.34	–	31.3	–	> 37.9	–	> 100	–	> 81.6	–	> 100	–	43.8	> 100	–
CCCCC(SC(=S)N(CC)CC)C(=O)Nc1nc(CC(=O)OCC)cs1 (centres undefined)	29.2	86	32.5	> 100	13.7	> 100	30.6	> 100	41.4	> 100	38	> 100	77.8	> 100	29.6	> 100	24.8	> 100	–	–
COC(=O)C1C2CC3C(OC(=O)C31)C2I (centres undefined)	–	> 100	–	> 10	–	> 100	–	> 100	–	> 100	–	> 100	–	> 100	–	> 100	–	> 100	–	–
S=C1CNC(=S)CN1	–	> 100	–	> 100	–	> 100	–	> 100	–	> 100	–	> 100	–	> 100	–	> 100	–	> 100	–	–
NCC(=O)Nc1ccc(-n2nc(C(F)(F)F)cc2-c2ccc3c(ccc4ccccc43)c2)cc1	1.82	3.48	1.38	2.75	1.34	2.65	–	–	0.929	3.15	0.835	2.16	1.65	3.4	–	–	1.83	3.51	2.06	0.578
